Data from PubChem BioAssay AID256 (DTP/NCI, 2004).
“And” between values parts separate entries of the source, which are not always exact repeats. Equal entries are not always repeated. Toxic doses and inconclusive results are not listed.

System: CD2F1 mice, L1210 leukemia ip, survival T/C
Experiment: NCI In Vivo Anticancer Drug Screen. Data for tumor model L1210 Leukemia (intraperitoneal) in CD2F1 (CDF1) mice
Settings: higher = longer survival
Procedure, shortened: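 Transplantable tumor in mice; compound-treated vs vehicle-treated groups. Read-out = treated/control ratio of the measured endpoint.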

[1] = endpoint: mean survival time, dose: 100.0 mg/kg/injection, schedule: Q04DX003 (ip), vehicle: saline with Tween-80
[2] = endpoint: mean survival time, dose: 400.0 mg/kg/injection, schedule: Q04DX003 (ip), vehicle: saline with Tween-80
[3] = endpoint: mean survival time, dose: 100.0 mg/kg/injection, schedule: Q04DX002 (ip), vehicle: saline with Tween-80
[4] = endpoint: mean survival time, dose: 200.0 mg/kg/injection, schedule: Q04DX002 (ip), vehicle: saline with Tween-80
[5] = endpoint: mean survival time, dose: 50.0 mg/kg/injection, schedule: Q04DX002 (ip), vehicle: saline with Tween-80
[6] = endpoint: mean survival time, dose: 100.0 mg/kg/injection, schedule: Q01DX009 (ip), vehicle: saline with Tween-80
[7] = endpoint: mean survival time, dose: 200.0 mg/kg/injection, schedule: Q01DX009 (ip), vehicle: saline with Tween-80
[8] = endpoint: mean survival time, dose: 400.0 mg/kg/injection, schedule: Q01DX009 (ip), vehicle: saline with Tween-80
[9] = endpoint: mean survival time, dose: 50.0 mg/kg/injection, schedule: Q01DX009 (ip), vehicle: saline with Tween-80
[10] = endpoint: mean survival time, dose: 200.0 mg/kg/injection, schedule: Q04DX003 (ip), vehicle: saline with Tween-80
[11] = endpoint: mean survival time, dose: 100.0 mg/kg/injection, schedule: Q01DX001 (ip), vehicle: saline with Tween-80
[12] = endpoint: mean survival time, dose: 200.0 mg/kg/injection, schedule: Q01DX001 (ip), vehicle: saline with Tween-80
[13] = endpoint: mean survival time, dose: 400.0 mg/kg/injection, schedule: Q01DX001 (ip), vehicle: saline with Tween-80

For `O=C(O)c1ccccc1Oc1ccccc1C(=O)O`, the T/C (endpoint: mean survival time, dose: 100.0 mg/kg/injection, schedule: Q01DX009 (ip), vehicle: saline) was 101 % of control, the T/C (endpoint: mean survival time, dose: 200.0 mg/kg/injection, schedule: Q01DX009 (ip), vehicle: saline) was 101 % of control and the T/C (endpoint: mean survival time, dose: 400.0 mg/kg/injection, schedule: Q01DX009 (ip), vehicle: saline) was 94 % of control.

In the case of `NC(CS/C=C\C(=O)O)C(=O)O` (centres undefined), the T/C [1] was 101 % of control and the T/C [2] was 93 % of control.

In the case of `CCCCCCCCCCCCNC(=O)Nc1cccc(OC)c1`, the T/C [3] was 94 % of control, the T/C [4] was 94 % of control and the T/C (endpoint: mean survival time, dose: 400.0 mg/kg/injection, schedule: Q04DX002 (ip), vehicle: saline with Tween-80) was 87 % of control.

`Cc1ccc(S(=O)[O-])cc1.[C-]#[O+].[C-]#[O+].[Fe+6].[c-]1[c-][c-][cH-][c-]1` was tested, and the T/C [5] was 97 % of control and the T/C [4] was 108 % of control.

In the case of `Cc1ccc(C(=O)CCC(=O)O)c(C)c1`, the T/C [6] was 100 % of control, the T/C [7] was 105 % of control and the T/C [8] was 98 % of control.

`Cc1cc(=O)[nH]c2ccccc12` was tested, and the T/C [9] was 96 % of control, the T/C (endpoint: mean survival time, dose: 100.0 mg/kg/injection, schedule: Q01DX001 (ip), vehicle: saline) was 98 % of control and the T/C [6] was 96 % of control. The T/C (endpoint: mean survival time, dose: 200.0 mg/kg/injection, schedule: Q01DX001 (ip), vehicle: saline) was 98 % of control, the T/C [7] was 103 % of control and the T/C (endpoint: mean survival time, dose: 400.0 mg/kg/injection, schedule: Q01DX001 (ip), vehicle: saline) was 102 % of control.

With `COC(C(N)=O)(c1ccccc1)C(F)(F)F` (centres undefined) the T/C [6] was 101 % of control, the T/C [1] was 102 % of control and the T/C [7] was 105 % of control. For the same molecule, the T/C [10] was 100 % of control, the T/C [8] was 94 % of control and the T/C [2] was 89 % of control.

With `O=C1N(C2CCCCC2)CC2C(c3ccccc3)N(c3ccccc3)NC12O` (centres undefined) the T/C [11] was 92 % of control, the T/C [6] was 97 % of control and the T/C [12] was 91 % of control. For the same molecule, the T/C [7] was 98 % of control, the T/C [13] was 88 % of control and the T/C [8] was 108 % of control.

With `CCOC(=O)C1(C(=O)OCC)C(C)CC(O)N1C(=O)c1cc2c(cc1[N+](=O)[O-])OCO2` (centres undefined) the T/C (endpoint: mean survival time, dose: 100.0 mg/kg/injection, schedule: Q01DX001 (ip), vehicle: Klucel (hydroxypropylcellulose) (HPC)) was 100 % of control, the T/C (endpoint: mean survival time, dose: 200.0 mg/kg/injection, schedule: Q01DX001 (ip), vehicle: Klucel (hydroxypropylcellulose) (HPC)) was 100 % of control and the T/C (endpoint: mean survival time, dose: 400.0 mg/kg/injection, schedule: Q01DX001 (ip), vehicle: Klucel (hydroxypropylcellulose) (HPC)) was 104 % of control.

For `O=[N+]([O-])O.[NH-]C1CCCCC1[NH-].[NH-]C1CCCCC1[NH-].[Ni+2]` (centres undefined), the T/C [5] was 110 % of control and the T/C [3] was 113 % of control.

With `C[n+]1ccccc1NC(=O)c1ccccc1` the T/C [1] was 98 % of control, the T/C [10] was 95 % of control and the T/C [2] was 88 % of control.

`COc1cc(Cc2cnc(NC(C)=O)nc2NC(C)=O)cc(OC)c1OC` was tested, and the T/C [2] was 93 % of control.

In the case of `COc1ccc(C2(C(=O)O)CC(C)=C(C)CC2C(=O)O)cc1` (centres undefined), the T/C [9] was 88 % of control, the T/C [6] was 93 % of control and the T/C [1] was 97 % of control. The T/C [10] was 95 % of control.

With `CCC1(C)CCC2C(CCC3C(C)(C(=O)OC)CCCC23C)C12SCCS2` (centres undefined) the T/C [11] was 86 % of control, the T/C [12] was 89 % of control and the T/C [13] was 96 % of control.

In the case of `C[n+]1cccc(NC(=O)c2ccc(NC(=O)C34CCC(C(=O)Nc5ccc(C(=O)Nc6ccc[n+](C)c6)cc5)(CC3)CC4)cc2)c1`, the T/C (endpoint: mean survival time, dose: 2.5 mg/kg/injection, schedule: Q01DX009 (ip), vehicle: saline with Tween-80) was 113 % of control, the T/C (endpoint: mean survival time, dose: 5.0 mg/kg/injection, schedule: Q01DX009 (ip), vehicle: saline with Tween-80) was 123 % of control and 104 % of control and the T/C (endpoint: mean survival time, dose: 10.0 mg/kg/injection, schedule: Q01DX009 (ip), vehicle: saline with Tween-80) was 110 % of control. For the same molecule, the T/C (endpoint: mean survival time, dose: 20.0 mg/kg/injection, schedule: Q01DX009 (ip), vehicle: saline with Tween-80) was 160 % of control, the T/C (endpoint: mean survival time, dose: 80.0 mg/kg/injection, schedule: Q01DX009 (ip), vehicle: saline with Tween-80) was 108 % of control and the T/C (endpoint: median survival time, dose: 3.6 mg/kg/injection, schedule: Q01DX009 (ip), vehicle: saline with Tween-80) was 106 % of control. For the same molecule, the T/C (endpoint: median survival time, dose: 16.67 mg/kg/injection, schedule: Q01DX009 (ip), vehicle: saline with Tween-80) was 264 % of control.
